The values that follow come from ChEMBL document CHEMBL1201862, “PubChem BioAssay data set” (2004).

Several values for one entry are separate records, joined by “and”; a condition that tells them apart may be missing. Identical values can stand only once. Activity calls are given as the source filed them.

A short description of assay [1]: inhibition of K1F phage lysis, E. coli UTI89, bacterial capsule biogenesis inhibitors, alamar blue (AID 488966). The class given is functional. A general note: The colour change of resazurin is a common sign of viable cells or microbes.
Assay [2] concerns the target T1, Mannose-6-phosphate isomerase (Homo sapiens, UniProt P34949).
T1 sequence (P34949 whole entry): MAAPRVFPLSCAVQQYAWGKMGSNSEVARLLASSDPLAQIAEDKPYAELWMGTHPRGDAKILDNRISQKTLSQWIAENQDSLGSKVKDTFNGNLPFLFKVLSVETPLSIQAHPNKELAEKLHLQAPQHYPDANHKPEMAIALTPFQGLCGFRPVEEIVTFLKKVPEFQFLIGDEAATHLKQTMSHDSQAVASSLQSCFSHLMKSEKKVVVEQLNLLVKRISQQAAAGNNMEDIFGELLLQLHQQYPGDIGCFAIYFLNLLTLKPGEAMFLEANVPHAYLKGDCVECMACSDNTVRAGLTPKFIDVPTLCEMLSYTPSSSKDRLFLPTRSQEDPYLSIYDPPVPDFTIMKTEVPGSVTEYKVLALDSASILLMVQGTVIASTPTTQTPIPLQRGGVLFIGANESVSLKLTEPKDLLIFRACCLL
Nature of the assay: PMI enzyme inhibitors, confirmation, biochemical, fluorescence intensity (AID 1535).

For assay [3], the target named is Alkaline phosphatase, placental type (Homo sapiens, UniProt P05187). Briefly: PLAP enzyme inhibitors, confirmation, biochemical, luminescence (AID 1512). The class given is functional.
Assay [4] addresses T1, Mannose-6-phosphate isomerase. Nature of the assay: Confirmation of compounds inhibiting phosphomannose isomerase (PMI) via a fluorescence intensity assay using a high concentration of mannose 6-phosphate. [Related pubchem assays (depositor defined):AID1209, AID1220, AID1545, AID1553, AID1620].
Assay [5] deals with Acyl-homoserine lactone acylase PvdQ (Pseudomonas aeruginosa (strain LESB58), UniProt Q9I194). Nature of the assay: P. aeruginosa PvdQ acylase inhibitors, dose response, biochemical, fluorescence, plate reader and imaging, cherry-picks (AID 493231).
The next assay concerns the target Cytochrome P450 2C9 (Homo sapiens, UniProt P11712). Particulars: Potency.
In another assay the target is Cytochrome P450 2D6 (Homo sapiens, UniProt P10635). Nature of the assay: qHTS Assay for Inhibitors and Substrates of Cytochrome P450 2D6. [Related pubchem assays: 410 ]. The class given is ADME. To be noted: read-out: Potency. (In qHTS, concentration-response curves come from the screen itself.)
Chain of Cytochrome P450 2D6 (P10635 whole entry): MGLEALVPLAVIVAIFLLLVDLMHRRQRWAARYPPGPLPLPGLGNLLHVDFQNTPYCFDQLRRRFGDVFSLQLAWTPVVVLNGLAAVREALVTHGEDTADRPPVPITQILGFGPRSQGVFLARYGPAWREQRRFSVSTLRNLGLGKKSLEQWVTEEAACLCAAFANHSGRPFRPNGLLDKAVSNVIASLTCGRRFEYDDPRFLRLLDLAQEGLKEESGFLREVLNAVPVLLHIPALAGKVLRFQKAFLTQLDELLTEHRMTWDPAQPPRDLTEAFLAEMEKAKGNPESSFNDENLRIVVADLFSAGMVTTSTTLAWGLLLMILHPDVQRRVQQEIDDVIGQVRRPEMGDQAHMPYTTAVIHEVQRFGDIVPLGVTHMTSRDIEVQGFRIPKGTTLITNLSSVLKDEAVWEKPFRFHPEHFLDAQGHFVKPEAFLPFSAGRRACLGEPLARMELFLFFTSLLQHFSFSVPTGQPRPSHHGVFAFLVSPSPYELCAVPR
Assay [6] concerns the target C-C chemokine receptor type 6 (Homo sapiens, UniProt P51684). Nature of the assay: CCR6 receptor antagonists, dose response, cell-based, luminescent beta-arrestin readout (AID 504728). The class given is functional.
The next assay has as its target Beta-galactosidase (Escherichia coli, UniProt Q8VNN2). Nature of the assay: beta-galactosidase enzyme inhibitors and activators, dose response, artefact control for CCR6 antagonist project, biochemical, E. coli enzyme, set 3 (AID 504712). The class given is functional.
Assay [7] is described as follows: Luminescence Cell-Based Dose Retest to Confirm Inhibitors of Cancer Stem Cells. [Related pubchem assays (depositor defined):AID2717, AID2721]. The class given is functional. To be noted: Homo sapiens.
The nature of assay [8]: growth suppression of PTEN-null colon cells, dose response, cell-based, HCT116 PTEN knockout (AID 1047).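 Also: HCT116 colon tumor cells with PTEN knocked out; cells exposed to compound for 60 hours before readout; potency for loss of cell viability measured by luminescence.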 The class given is functional.
Assay [9] addresses DNA dC->dU-editing enzyme APOBEC-3G (Homo sapiens, UniProt Q9HC16). Briefly: Dose Response confirmation of small molecule APOBEC3G DNA Deaminase Inhibitors via a fluorescence-based single-stranded DNA deaminase assay. [Related pubchem assays (depositor defined):AID493012, AID493028]. The class given is functional.
Assay [10] has as its target Glucose-6-phosphate 1-dehydrogenase (Homo sapiens, UniProt P11413). Nature of the assay: human G6PD enzyme inhibitors, dose response, selectivity assay for P. falciparum G6PD inhibitor project, biochemical, fluorescence (AID 504792). The class given is functional.
The nature of assay [11]: growth suppression of beta-catenin-knockout colon cells, dose response, cell-based, HCT116, human colon tumor (AID 1045).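 Also: HCT116 colon tumor cells with beta catenin knocked out; cells exposed to compound for 60 hours.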 The class given is functional.
The target in assay [12] is T2, Voltage-gated N-type calcium channel alpha-1B subunit/Amyloid beta A4 precursor protein-binding family A member 1 (Homo sapiens, UniProt Q00975+Q02410). The class given is protein assay.
T2 sequence (Q00975 whole entry): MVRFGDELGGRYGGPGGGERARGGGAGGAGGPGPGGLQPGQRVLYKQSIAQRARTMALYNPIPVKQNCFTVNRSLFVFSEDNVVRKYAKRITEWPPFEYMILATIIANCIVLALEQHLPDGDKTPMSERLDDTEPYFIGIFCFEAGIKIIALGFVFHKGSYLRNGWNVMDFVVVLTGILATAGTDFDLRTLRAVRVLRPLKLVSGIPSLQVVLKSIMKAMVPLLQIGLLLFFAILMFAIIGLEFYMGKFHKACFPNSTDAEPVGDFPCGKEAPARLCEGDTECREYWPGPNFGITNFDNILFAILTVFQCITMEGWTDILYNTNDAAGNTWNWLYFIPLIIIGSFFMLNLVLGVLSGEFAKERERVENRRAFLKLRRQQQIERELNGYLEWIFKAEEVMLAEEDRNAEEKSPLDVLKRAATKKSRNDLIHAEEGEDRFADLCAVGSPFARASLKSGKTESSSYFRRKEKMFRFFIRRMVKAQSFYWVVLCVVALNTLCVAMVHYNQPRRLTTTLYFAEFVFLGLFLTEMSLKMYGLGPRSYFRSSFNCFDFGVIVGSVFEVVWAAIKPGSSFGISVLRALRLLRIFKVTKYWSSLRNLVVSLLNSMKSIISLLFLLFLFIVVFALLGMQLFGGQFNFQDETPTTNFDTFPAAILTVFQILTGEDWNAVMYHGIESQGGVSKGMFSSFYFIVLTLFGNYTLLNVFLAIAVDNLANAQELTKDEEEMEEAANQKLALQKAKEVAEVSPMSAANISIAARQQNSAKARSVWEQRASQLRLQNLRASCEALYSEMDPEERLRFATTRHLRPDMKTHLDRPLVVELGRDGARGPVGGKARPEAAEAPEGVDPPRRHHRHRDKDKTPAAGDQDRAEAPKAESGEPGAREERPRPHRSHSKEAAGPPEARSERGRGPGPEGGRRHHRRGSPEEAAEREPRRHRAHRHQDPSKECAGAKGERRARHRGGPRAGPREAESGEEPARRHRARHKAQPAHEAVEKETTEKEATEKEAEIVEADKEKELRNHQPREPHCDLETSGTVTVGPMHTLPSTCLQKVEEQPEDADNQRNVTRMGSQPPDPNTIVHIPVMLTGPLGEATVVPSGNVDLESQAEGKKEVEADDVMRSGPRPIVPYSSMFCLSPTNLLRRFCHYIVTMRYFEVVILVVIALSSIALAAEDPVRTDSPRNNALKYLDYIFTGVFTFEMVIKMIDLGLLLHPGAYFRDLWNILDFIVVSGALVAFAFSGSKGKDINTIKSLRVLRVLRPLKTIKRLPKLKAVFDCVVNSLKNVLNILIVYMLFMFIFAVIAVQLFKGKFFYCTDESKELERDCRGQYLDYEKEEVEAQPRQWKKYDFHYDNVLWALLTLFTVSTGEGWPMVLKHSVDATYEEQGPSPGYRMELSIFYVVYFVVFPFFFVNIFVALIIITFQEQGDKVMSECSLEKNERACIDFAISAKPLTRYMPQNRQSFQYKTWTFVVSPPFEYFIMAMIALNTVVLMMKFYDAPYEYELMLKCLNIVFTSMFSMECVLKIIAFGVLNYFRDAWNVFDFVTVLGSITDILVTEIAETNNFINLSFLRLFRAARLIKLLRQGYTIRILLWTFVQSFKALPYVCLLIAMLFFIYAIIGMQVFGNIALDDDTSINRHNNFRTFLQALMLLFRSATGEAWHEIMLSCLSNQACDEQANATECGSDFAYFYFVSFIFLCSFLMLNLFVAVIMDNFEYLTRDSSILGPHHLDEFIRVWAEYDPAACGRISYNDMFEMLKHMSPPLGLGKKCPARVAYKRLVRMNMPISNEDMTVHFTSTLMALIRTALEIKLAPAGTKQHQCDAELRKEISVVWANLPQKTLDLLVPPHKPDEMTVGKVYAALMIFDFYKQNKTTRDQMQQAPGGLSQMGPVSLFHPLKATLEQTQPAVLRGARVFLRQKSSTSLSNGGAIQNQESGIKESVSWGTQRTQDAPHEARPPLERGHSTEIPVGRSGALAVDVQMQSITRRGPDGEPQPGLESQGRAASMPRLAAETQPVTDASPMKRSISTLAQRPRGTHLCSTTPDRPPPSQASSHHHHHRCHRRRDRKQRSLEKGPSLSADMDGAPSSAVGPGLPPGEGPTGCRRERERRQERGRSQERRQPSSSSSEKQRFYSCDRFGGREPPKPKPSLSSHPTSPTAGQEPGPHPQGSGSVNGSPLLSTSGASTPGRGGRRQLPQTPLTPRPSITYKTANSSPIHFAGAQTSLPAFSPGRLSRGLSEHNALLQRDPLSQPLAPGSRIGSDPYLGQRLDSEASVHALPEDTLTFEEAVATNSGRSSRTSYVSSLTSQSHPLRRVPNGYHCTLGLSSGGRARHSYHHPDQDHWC
T2 sequence (Q02410 whole entry): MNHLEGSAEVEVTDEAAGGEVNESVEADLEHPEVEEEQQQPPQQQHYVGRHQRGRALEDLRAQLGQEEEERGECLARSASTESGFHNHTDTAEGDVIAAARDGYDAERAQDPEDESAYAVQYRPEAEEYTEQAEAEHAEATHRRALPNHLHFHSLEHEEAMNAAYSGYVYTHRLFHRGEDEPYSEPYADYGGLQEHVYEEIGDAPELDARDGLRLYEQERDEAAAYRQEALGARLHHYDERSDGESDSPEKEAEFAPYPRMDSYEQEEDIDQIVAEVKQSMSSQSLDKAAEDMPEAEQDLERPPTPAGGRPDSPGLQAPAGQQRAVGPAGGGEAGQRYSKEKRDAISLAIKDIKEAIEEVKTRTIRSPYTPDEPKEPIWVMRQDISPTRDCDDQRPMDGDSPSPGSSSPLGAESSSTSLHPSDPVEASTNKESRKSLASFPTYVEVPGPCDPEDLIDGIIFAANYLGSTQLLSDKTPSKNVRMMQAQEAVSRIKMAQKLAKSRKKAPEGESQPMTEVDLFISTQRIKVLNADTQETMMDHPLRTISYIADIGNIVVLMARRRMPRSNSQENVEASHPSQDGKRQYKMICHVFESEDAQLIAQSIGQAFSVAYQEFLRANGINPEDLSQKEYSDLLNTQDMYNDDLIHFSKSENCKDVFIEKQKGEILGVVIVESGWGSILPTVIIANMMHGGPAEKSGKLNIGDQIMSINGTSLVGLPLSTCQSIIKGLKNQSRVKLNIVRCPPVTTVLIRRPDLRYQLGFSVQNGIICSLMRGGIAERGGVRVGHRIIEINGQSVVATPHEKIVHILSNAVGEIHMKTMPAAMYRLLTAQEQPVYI
The target in another assay is Large T antigen (Simian virus 40, UniProt P03070). The class given is functional, Betapolyomavirus macacae.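 Also: Confirmatory-stage PubChem screen for compounds that inhibit SV40 T antigen.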
For assay [13], the target named is T2, Voltage-gated N-type calcium channel alpha-1B subunit/Amyloid beta A4 precursor protein-binding family A member 1. The class given is protein assay. The source holds these as a separate data set.
Assay [14] addresses Phosphoethanolamine/phosphocholine phosphatase (Homo sapiens, UniProt Q8TCT1). Briefly: SAR assay for compounds that inhibit PHOSPHO1. [Related pubchem assays (depositor defined):AID1545, AID1565, AID1574].
The target in a further assay is Phosphomannomutase 2 (Homo sapiens, UniProt O15305). Nature of the assay: Counter screen SAR assay for PMM2 inhibitors via a fluorescence intensity assay. [Related pubchem assays (depositor defined):AID1545, AID1574]. (Counterscreens check selectivity or assay interference.)
The target in assay [15] is Photoreceptor-specific nuclear receptor (Homo sapiens, UniProt Q9Y5X4). The class given is functional, cell-based.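 Also: CHO-S cells with Gal4-NCOR and VP16-NR2E3 two-hybrid luciferase reporter.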
Assay [16] in a line: luciferase reporter signal reduction – luminescence, H4-C neuroglioblastoma cells, dose response (AID 2458).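 Also: H4 neuroglioblastoma cells stably carrying a luciferase reporter gene fusion.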 The class given is functional, cell-based.
A short description of assay [17]: inhibitors of SNCA 5'UTR-driven reporter translation, confirmation, H4 neuroglioma cells, luminescence (AID 1988). The class given is functional, cell-based.
Assay [18] is described as follows: Luminescence Cell-Based Dose Response HTS to Identify Inhibitors of 5'UTR Stem-Loop Driven Prion Protein mRNA Translation in H4 Neuroglioblastoma Cells. [Related pubchem assays: 1827 (Project Summary), 1813 (Primary HTS)]. The class given is functional.
Assay [19] is described as follows: inhibitors of firefly luciferase expression or activity, dose response, H4 neuroglioma cells, luminescence (AID 1990). The class given is functional, cell-based.
Assay [20] can be described thus: inhibitors of SNCA 5'UTR-driven translation, confirmation, luminescence, H4 neuroglioblastoma cells, dose confirmation (AID 2454).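 Also: H4 neuroglioblastoma cells carrying an alpha-synuclein 5'UTR luciferase reporter; potency for inhibition of the luciferase signal.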 The class given is functional, cell-based.
A further assay in a line: cells. The class given is functional, cell-based.
For assay [21], the target named is Potassium voltage-gated channel subfamily KQT member 2 (Rattus norvegicus, UniProt O88943). Briefly: retigabine-insensitive KCNQ2 potentiators, concentration-response, dose response, cell-based, retigabine-insensitive compounds (AID 2654). The class given is functional.
A further assay deals with HEK293. Briefly: Fluorescence-based counterscreen for potentiators or agonists of NPY-Y2: cell-based high-throughput dose response assay to identify inhibitors of cyclic nucleotide gated ion channel (CNGC) activity. In this assay, the parental HEK293 cell line transfected with a cyclic-nucleotide gated ion channel (CNGC)-based cAMP sensor is used to measure inhibition of isoproterenol-induced CNGC activity by test compound. The class given is functional. To be noted: Homo sapiens.

For assay [22], the target named is T3, Neuropeptide Y receptor type 1 (Homo sapiens, UniProt P25929).
T3 sequence (P25929 whole entry): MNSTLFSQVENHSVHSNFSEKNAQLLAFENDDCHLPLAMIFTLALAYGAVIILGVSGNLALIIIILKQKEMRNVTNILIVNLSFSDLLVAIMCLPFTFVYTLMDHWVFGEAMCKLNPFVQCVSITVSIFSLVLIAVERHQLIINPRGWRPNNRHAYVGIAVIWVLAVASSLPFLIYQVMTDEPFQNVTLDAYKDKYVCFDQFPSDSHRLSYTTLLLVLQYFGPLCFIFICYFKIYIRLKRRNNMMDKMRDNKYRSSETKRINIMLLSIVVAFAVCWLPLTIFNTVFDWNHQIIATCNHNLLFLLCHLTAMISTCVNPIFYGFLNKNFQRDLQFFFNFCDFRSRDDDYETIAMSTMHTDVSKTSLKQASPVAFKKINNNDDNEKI
Briefly: Fluorescence-based counterscreen for agonists of NPY-Y2: cell-based high-throughput dose response assay for agonists of NPY-Y1. The class given is functional.

In assay [23] the target is T4, Neuropeptide Y receptor type 2 (Homo sapiens, UniProt P49146).
T4 sequence (P49146 whole entry): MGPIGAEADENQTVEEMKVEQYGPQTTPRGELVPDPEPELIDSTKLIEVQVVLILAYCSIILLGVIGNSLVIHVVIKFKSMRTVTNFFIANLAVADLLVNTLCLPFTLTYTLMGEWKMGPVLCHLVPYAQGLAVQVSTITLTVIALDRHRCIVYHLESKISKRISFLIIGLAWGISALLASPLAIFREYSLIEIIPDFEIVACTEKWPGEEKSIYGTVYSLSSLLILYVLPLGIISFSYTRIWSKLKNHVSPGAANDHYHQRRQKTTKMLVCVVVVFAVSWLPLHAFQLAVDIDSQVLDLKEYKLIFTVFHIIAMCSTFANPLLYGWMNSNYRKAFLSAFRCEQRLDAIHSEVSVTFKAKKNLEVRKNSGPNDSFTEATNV
Briefly: Fluorescence-based cell-based high-throughput dose response assay for agonists of NPY-Y2. [Related pubchem assays: 1703 (Screening assay (CNGC inhibitors).), 1359 (Screening assay (NPY-Y2 potentiators or agonists).), 1304 (Screening assay (NPY-Y1 potentiators or agonists).), 1710 (Screening assay (NPY-Y2 agonists).), 1791 (Summary AID.)]. The class given is functional.

Assay [24] concerns the target T5, Eukaryotic translation initiation factor 2-alpha kinase 3 (Homo sapiens, UniProt Q9NZJ5). Briefly: Counterscreen assay for PERK inhibitors: Dose response cell-based high throughput screening assay to measure inhibition of PERK at 6 hours. [Related pubchem assays: 1522, 1416 ]. The class given is functional.
Assay [25] has as its target T5, Eukaryotic translation initiation factor 2-alpha kinase 3. Nature of the assay: Dose response cell-based high-throughput screening assay to measure PERK inhibition. [Related pubchem assays: 1416 ]. The class given is functional.
The next assay has as its system HeLa. Briefly: Cytotoxicity counterscreen assay for transcriptional activators of heat shock protein 70 (Hsp70). [Related pubchem assays: 1203, 1252 ]. The class given is functional. Particulars: Homo sapiens.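 Also: cells exposed to compound for 16 hours before readout.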
The target in the next assay is Paired box protein Pax-8 (Homo sapiens, UniProt Q06710). Nature of the assay: inhibitors of PAX8-driven TPO luciferase reporter, dose response, RMG-I cells, cherry-pick (AID 687027).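 Also: luciferase reporter driven by Pax8 target thyroperoxidase promoter measured by SteadyGlo luminescence.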 The class given is functional, cell-based.
Assay [26] is described as follows: inhibitors of CMV-promoter luciferase reporter, dose response, counter-screen for Pax8 inhibitor project, cell-based, HEK293, luminescence, dry powder (AID 743020). The class given is functional.

T5 sequence (Q9NZJ5 whole entry): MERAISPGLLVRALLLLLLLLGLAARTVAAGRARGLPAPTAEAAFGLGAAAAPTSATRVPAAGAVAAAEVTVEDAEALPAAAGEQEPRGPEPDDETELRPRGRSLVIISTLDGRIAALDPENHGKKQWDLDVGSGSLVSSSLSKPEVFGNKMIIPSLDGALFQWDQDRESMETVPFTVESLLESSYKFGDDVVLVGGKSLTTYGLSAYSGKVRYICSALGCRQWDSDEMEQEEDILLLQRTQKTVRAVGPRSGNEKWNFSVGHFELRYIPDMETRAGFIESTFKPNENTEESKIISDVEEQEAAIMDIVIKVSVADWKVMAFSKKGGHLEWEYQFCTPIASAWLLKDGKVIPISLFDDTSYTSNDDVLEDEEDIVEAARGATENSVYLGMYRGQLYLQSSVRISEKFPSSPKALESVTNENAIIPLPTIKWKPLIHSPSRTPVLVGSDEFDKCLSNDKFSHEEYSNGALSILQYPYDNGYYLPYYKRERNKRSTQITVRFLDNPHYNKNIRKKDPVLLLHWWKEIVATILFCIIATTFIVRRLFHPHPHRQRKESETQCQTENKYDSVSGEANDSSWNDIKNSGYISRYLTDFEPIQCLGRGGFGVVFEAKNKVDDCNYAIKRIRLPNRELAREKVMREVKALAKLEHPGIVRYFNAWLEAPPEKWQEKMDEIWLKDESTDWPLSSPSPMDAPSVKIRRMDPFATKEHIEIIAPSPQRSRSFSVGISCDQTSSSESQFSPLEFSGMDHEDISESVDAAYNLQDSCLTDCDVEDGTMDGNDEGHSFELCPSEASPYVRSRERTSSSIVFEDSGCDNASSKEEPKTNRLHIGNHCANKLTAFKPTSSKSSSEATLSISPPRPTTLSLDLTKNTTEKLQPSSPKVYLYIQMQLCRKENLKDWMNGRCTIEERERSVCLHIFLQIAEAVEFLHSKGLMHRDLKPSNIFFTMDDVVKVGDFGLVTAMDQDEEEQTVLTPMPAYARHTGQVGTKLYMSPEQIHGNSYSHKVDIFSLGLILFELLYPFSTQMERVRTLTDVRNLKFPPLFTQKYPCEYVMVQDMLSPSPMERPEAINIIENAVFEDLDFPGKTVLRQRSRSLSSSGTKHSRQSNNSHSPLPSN
Chain of Phosphoethanolamine/phosphocholine phosphatase (Q8TCT1 whole entry): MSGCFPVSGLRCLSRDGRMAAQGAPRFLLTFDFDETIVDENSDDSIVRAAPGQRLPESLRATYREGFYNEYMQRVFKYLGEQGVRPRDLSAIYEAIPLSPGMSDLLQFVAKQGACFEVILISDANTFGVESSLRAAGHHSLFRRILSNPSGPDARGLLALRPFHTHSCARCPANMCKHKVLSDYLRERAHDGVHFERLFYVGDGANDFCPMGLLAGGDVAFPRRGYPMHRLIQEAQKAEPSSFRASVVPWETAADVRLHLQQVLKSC

Regarding `Cc1nc(NC(=O)c2ccco2)sc1C(=O)Nc1ccc(Br)cc1`, the IC50 (usually the point on the concentration scale where inhibition reaches its midpoint) in assay [1] was > 75 µM (active).
Turning to `CCCCN1C(=O)/C(=N\Nc2ccccc2O)c2ccccc21`, the IC50 in assay [2], in assay [3] and in assay [4] was > 100 µM (inactive) throughout.
In the case of `CCNC(=O)COc1ccc2ccccc2c1`, the AC50 in assay [5] is 11.7 µM (active).
In the case of `COC(=O)[C@@H]1[C@H]2C[C@H]3c4[nH]c5cc(OC)ccc5c4CCN3C[C@@H]2C[C@@H](OC(=O)c2cc(OC)c(OC)c(OC)c2)[C@@H]1OC`, the AC50 at Cytochrome P450 2C9 was 15.8 µM (inconclusive); at Cytochrome P450 2D6 it was 39.8 µM (inconclusive) and 12.6 µM (inconclusive).
For `C=C(CC[C@@H](O)C(C)(C)O)[C@H]1CC[C@]2(C)[C@@H]1CC[C@@H]1[C@@]3(C)CC[C@H](O)C(C)(C)C3CC[C@]12C` (stereo partly specified), the IC50 (in assay [6]; at Beta-galactosidase) was > 66.6 µM (inactive) throughout. Besides, in [7], the AC50 is 0.561 µM (active).
As to `Cc1cc(C)c2c(=O)n(CC(=O)N3CCC(N4CCCCC4)CC3)sc2n1`, the EC50 – broadly, the concentration giving half of the maximal effect – was 22.6 µM (active) in assay [8] and 18.6 µM (active) in [11]. In addition, the IC50 is 9.83 µM (active) in [9]; 37 µM (inactive) in [10]; > 50 µM (inactive) in [12]; 28.1 µM (active) at Large T antigen; 16.2 µM (active) in [13].
With `Cc1c(Cl)cccc1-n1sc2cc(F)ccc2c1=O`, the IC50 in assay [2] was 28.6 µM (active); in assay [14], 1.53 µM (inactive); at Phosphomannomutase 2, 8.74 µM (active).
Consider `Cc1ccsc1C(=O)OCC(=O)c1cc(C)n(CC2CCCO2)c1C` (stereo unspecified), for which the IC50 in assay [15] was 6.9 µM (active). Besides, the EC50 is 0.9 µM (active) in assay [16]; < 0.1 µM (active) in [17]; 0.325 µM (active) in assay [18]; 8.04 µM (active) in assay [19]; 0.322 µM (active) in [20]; 3.3 µM (active) in the assay “cells”.
Consider `Cc1cccc(NC(=O)Nc2cccnc2)c1C`, for which the EC50 in assay [21] is 16 µM (active).
On to `O=C(/C=C/c1cn(-c2ccccc2)nc1-c1cccnc1)N1CCCC1`, for which the EC50 (in the assay with HEK293; in assay [22]; in assay [23]) was > 35.4 µM (not active) each time.
With `Cc1cc2c(NC(=O)Nc3ccc(F)cc3)cccc2nn1`, the EC50 in [24] and in assay [25] was > 55.7 µM (not active) each time.
Turning to `CCCC(=O)N1CCN(c2ccc(NC(=O)c3ccc([N+](=O)[O-])o3)cc2)CC1`, the CC50 (usually the concentration that lowers cell viability or growth by half) with HeLa is 6.29 µM (active). The AC50 is 5.17 µM (active) at Paired box protein Pax-8 and 19.9 µM (active) in assay [26].
